Assay results taken from PubChem BioAssay (NCI).
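Following 48 hours of exposure in 96-well plates, responses at five concentrations were used to interpolate endpoints linearly. TGI denotes the concentration required for complete inhibition of growth.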

What was measured:
Assay in all cases: inhibition of tumour cell growth, NCI panel, 48 h
SK-MEL-2 melanoma = tested on: SK-MEL-2 melanoma
HOP-92 NSCLC = tested on: HOP-92 NSCLC
SW-620 colon = tested on: SW-620 colon
A549 NSCLC = tested on: A549 NSCLC
PC-3 prostate = tested on: PC-3 prostate
RPMI-8226 leukemia = tested on: RPMI-8226 leukemia
KM12 colon = tested on: KM12 colon
MDA-N = tested on: MDA-N
MDA-MB-231 breast = tested on: MDA-MB-231 breast
M14 melanoma = tested on: M14 melanoma
OVCAR-4 ovarian = tested on: OVCAR-4 ovarian
NCI-H23 lung = tested on: NCI-H23 lung
OVCAR-8 ovarian = tested on: OVCAR-8 ovarian
ACHN renal = tested on: ACHN renal

SMILES: COC1/C=C/C(C)C(C(C)C(OC)C(C)CCC(=O)C(C)C(CC(=O)O)OC)OC(=O)/C=C/C=C(\C)CC(OC)C(OC)C2=CC(=O)O[C@@H](C(C)C(OC)CC(OC)/C=C/C(C)C(O)C1)[C@H]2O (stereo partly drawn)
- TGI (SK-MEL-2 melanoma): 0.625 µM
- TGI (HOP-92 NSCLC): 0.0917 µM
- TGI (SW-620 colon): > 1.07 µM
- TGI (A549 NSCLC): 0.437 µM
- TGI (PC-3 prostate): > 1.07 µM
- TGI (RPMI-8226 leukemia): > 1.07 µM
- TGI (KM12 colon): > 1.07 µM
- TGI (MDA-N): > 1.07 µM
- TGI (MDA-MB-231 breast): 0.754 µM
- TGI (M14 melanoma): 0.0739 µM
- TGI (OVCAR-4 ovarian): > 1.07 µM
- TGI (NCI-H23 lung): 0.722 µM
- TGI (OVCAR-8 ovarian): 0.132 µM
- TGI (ACHN renal): > 1.07 µM

SMILES: N#Cc1c(Cl)cccc1Oc1ccc(S(=O)(=O)/N=C(\NO)Nc2ccc(Cl)cc2)cc1
- TGI (SK-MEL-2 melanoma): 38.5 µM
- TGI (HOP-92 NSCLC): 24.6 µM
- TGI (SW-620 colon): 34.8 µM
- TGI (A549 NSCLC): 32.2 µM
- TGI (PC-3 prostate): 30.6 µM
- TGI (RPMI-8226 leukemia): 71.2 µM
- TGI (KM12 colon): 31.2 µM
- TGI (MDA-N): 29.9 µM
- TGI (MDA-MB-231 breast): 37.4 µM
- TGI (M14 melanoma): 29.2 µM
- TGI (OVCAR-4 ovarian): 31.4 µM
- TGI (NCI-H23 lung): 34.6 µM
- TGI (OVCAR-8 ovarian): 43.5 µM
- TGI (ACHN renal): 29.1 µM

SMILES: CCOc1cc(NC(C)=O)ccc1C(=O)NN1C(=O)C(Cl)C1c1ccc(O)c(OC)c1 (stereo not drawn)
- TGI (SK-MEL-2 melanoma): 33.5 µM
- TGI (HOP-92 NSCLC): 32.3 µM
- TGI (SW-620 colon): 60.1 µM
- TGI (A549 NSCLC): 32.5 µM
- TGI (PC-3 prostate): 28.3 µM
- TGI (RPMI-8226 leukemia): 40.5 µM
- TGI (KM12 colon): 33.6 µM
- TGI (MDA-N): 31.9 µM
- TGI (MDA-MB-231 breast): 26.9 µM
- TGI (M14 melanoma): 28.1 µM
- TGI (OVCAR-4 ovarian): 31.6 µM
- TGI (NCI-H23 lung): 25.4 µM
- TGI (OVCAR-8 ovarian): 82.3 µM
- TGI (ACHN renal): 30.3 µM

SMILES: O=C1CSC2(CC(/C=C/c3cccc(Br)c3)=NN2c2cccc(S(=O)(=O)O)c2)N1c1nc2ccccc2s1 (stereo not drawn)
- TGI (SK-MEL-2 melanoma): > 100 µM
- TGI (HOP-92 NSCLC): > 100 µM
- TGI (SW-620 colon): > 100 µM
- TGI (A549 NSCLC): > 100 µM
- TGI (PC-3 prostate): > 100 µM
- TGI (RPMI-8226 leukemia): > 100 µM
- TGI (KM12 colon): > 100 µM
- TGI (MDA-N): > 100 µM
- TGI (MDA-MB-231 breast): > 100 µM
- TGI (M14 melanoma): > 100 µM
- TGI (OVCAR-4 ovarian): > 100 µM
- TGI (NCI-H23 lung): > 100 µM
- TGI (OVCAR-8 ovarian): > 100 µM
- TGI (ACHN renal): > 100 µM

SMILES: Clc1ccccc1-c1nn2c(CCCCCCCCc3nnc4sc(-c5ccccc5Cl)nn34)nnc2s1
- TGI (SK-MEL-2 melanoma): > 100 µM
- TGI (HOP-92 NSCLC): > 100 µM
- TGI (SW-620 colon): > 100 µM
- TGI (A549 NSCLC): > 100 µM
- TGI (PC-3 prostate): > 100 µM
- TGI (RPMI-8226 leukemia): > 100 µM
- TGI (KM12 colon): > 100 µM
- TGI (MDA-N): > 100 µM
- TGI (MDA-MB-231 breast): > 100 µM
- TGI (M14 melanoma): > 100 µM
- TGI (OVCAR-4 ovarian): > 100 µM
- TGI (NCI-H23 lung): > 100 µM
- TGI (OVCAR-8 ovarian): > 100 µM
- TGI (ACHN renal): > 100 µM

SMILES: CCOC(=O)Nn1cnnc1Cc1ccccc1
- TGI (SK-MEL-2 melanoma): > 100 µM
- TGI (HOP-92 NSCLC): > 100 µM
- TGI (SW-620 colon): > 100 µM
- TGI (A549 NSCLC): > 100 µM
- TGI (PC-3 prostate): > 100 µM
- TGI (RPMI-8226 leukemia): > 100 µM
- TGI (KM12 colon): > 100 µM
- TGI (MDA-N): > 100 µM
- TGI (MDA-MB-231 breast): > 100 µM
- TGI (M14 melanoma): > 100 µM
- TGI (OVCAR-4 ovarian): > 100 µM
- TGI (NCI-H23 lung): > 100 µM
- TGI (OVCAR-8 ovarian): > 100 µM
- TGI (ACHN renal): > 100 µM

SMILES: O=c1[nH]nc(Cc2ccccc2)n1N=C1CCCCC1
- TGI (SK-MEL-2 melanoma): > 100 µM
- TGI (HOP-92 NSCLC): > 100 µM
- TGI (SW-620 colon): > 100 µM
- TGI (A549 NSCLC): > 100 µM
- TGI (PC-3 prostate): > 100 µM
- TGI (RPMI-8226 leukemia): > 100 µM
- TGI (KM12 colon): > 100 µM
- TGI (MDA-N): > 100 µM
- TGI (MDA-MB-231 breast): > 100 µM
- TGI (M14 melanoma): > 100 µM
- TGI (OVCAR-4 ovarian): > 100 µM
- TGI (NCI-H23 lung): > 100 µM
- TGI (OVCAR-8 ovarian): > 100 µM
- TGI (ACHN renal): > 100 µM

SMILES: COc1ccc(C[C@H]2NC[C@H](OC(C)=O)[C@H]2OC(C)=O)cc1
- TGI (SK-MEL-2 melanoma): 0.627 µM
- TGI (HOP-92 NSCLC): 0.356 µM
- TGI (SW-620 colon): 1.14 µM
- TGI (A549 NSCLC): 1.08 µM
- TGI (PC-3 prostate): 1.08 µM
- TGI (RPMI-8226 leukemia): 1.95 µM
- TGI (KM12 colon): 1.46 µM
- TGI (MDA-N): 0.732 µM
- TGI (MDA-MB-231 breast): 1.49 µM
- TGI (M14 melanoma): 0.328 µM
- TGI (OVCAR-4 ovarian): 0.706 µM
- TGI (NCI-H23 lung): 0.94 µM
- TGI (OVCAR-8 ovarian): 2 µM
- TGI (ACHN renal): 0.853 µM

SMILES: CC(=O)O[C@H]1CC[C@@]2(C)C(=CC[C@H]3[C@@H]4C[C@H](N5CCN(C)CC5)[C@H](OC(C)=O)[C@@]4(C)CC[C@@H]32)C1
- TGI (SK-MEL-2 melanoma): 33.3 µM
- TGI (HOP-92 NSCLC): 92.7 µM
- TGI (SW-620 colon): 29.8 µM
- TGI (A549 NSCLC): 36 µM
- TGI (PC-3 prostate): 32.5 µM
- TGI (RPMI-8226 leukemia): 14.7 µM
- TGI (KM12 colon): 32.3 µM
- TGI (MDA-N): 26.5 µM
- TGI (MDA-MB-231 breast): 34.3 µM
- TGI (M14 melanoma): 8.2 µM
- TGI (OVCAR-4 ovarian): 32.6 µM
- TGI (NCI-H23 lung): 48.3 µM
- TGI (OVCAR-8 ovarian): 30.5 µM
- TGI (ACHN renal): > 100 µM

SMILES: Cc1ccc([N+](=O)[O-])cc1S(=O)(=O)Nc1ccc(C2=NOC(c3ccccc3)C2)cc1 (stereo not drawn)
- TGI (SK-MEL-2 melanoma): 21.3 µM
- TGI (HOP-92 NSCLC): 61.2 µM
- TGI (SW-620 colon): 59.1 µM
- TGI (A549 NSCLC): > 100 µM
- TGI (PC-3 prostate): > 100 µM
- TGI (RPMI-8226 leukemia): 34.6 µM
- TGI (KM12 colon): 18.5 µM
- TGI (MDA-N): 6.38 µM
- TGI (MDA-MB-231 breast): 88.3 µM
- TGI (M14 melanoma): 18.1 µM
- TGI (OVCAR-4 ovarian): 11.8 µM
- TGI (NCI-H23 lung): > 100 µM
- TGI (OVCAR-8 ovarian): > 100 µM
- TGI (ACHN renal): 50.4 µM

SMILES: CNc1nc2c(C)ccc3nc(N(C)C)nc-3c2n1C
- TGI (SK-MEL-2 melanoma): > 10 µM
- TGI (HOP-92 NSCLC): > 10 µM
- TGI (SW-620 colon): > 10 µM
- TGI (A549 NSCLC): > 10 µM
- TGI (PC-3 prostate): > 10 µM
- TGI (RPMI-8226 leukemia): > 10 µM
- TGI (KM12 colon): > 10 µM
- TGI (MDA-N): > 10 µM
- TGI (MDA-MB-231 breast): > 10 µM
- TGI (M14 melanoma): > 10 µM
- TGI (OVCAR-4 ovarian): > 10 µM
- TGI (NCI-H23 lung): > 10 µM
- TGI (OVCAR-8 ovarian): > 10 µM
- TGI (ACHN renal): > 10 µM

SMILES: COc1ccc2c(c1)nc1n2C(c2c(F)cccc2F)SC1 (stereo not drawn)
- TGI (SK-MEL-2 melanoma): 96.7 µM
- TGI (HOP-92 NSCLC): > 100 µM
- TGI (SW-620 colon): > 100 µM
- TGI (A549 NSCLC): > 100 µM
- TGI (PC-3 prostate): > 100 µM
- TGI (RPMI-8226 leukemia): > 100 µM
- TGI (KM12 colon): > 100 µM
- TGI (MDA-N): > 100 µM
- TGI (MDA-MB-231 breast): > 100 µM
- TGI (M14 melanoma): > 100 µM
- TGI (OVCAR-4 ovarian): > 100 µM
- TGI (NCI-H23 lung): > 100 µM
- TGI (OVCAR-8 ovarian): > 100 µM
- TGI (ACHN renal): > 100 µM
